Laboratory results from patent US20190197375A1, “TRACEABLE METALLIC PRODUCTS AND METALLIC SUPPORT FOR NANOSTORAGE” (9163-0384 QUEBÉC INC., priority 2013, published 2019).

Assays:
[1] = test system: S. aureus; assay: Antibacterial activity of anodized disk impregnated with benzalkonium chloride, deposited 5 min on agar plate lawn; type: cell-based; conditions: anodized disk soaked 10 min, FIG. 4
Description: Anodized and non-anodized aluminum disks were compared for incorporation/storage and recovery/diffusion of a chemical antibacterial compound. Briefly, anodized and non-anodized disks were prepared as described hereinbefore. The disks were then impregnated or not with benzalkonium chloride (an antibacterial) by soaking 10 min at room temperature and rinsed several times with water.
The disks were then tested for diffusion of the antimicrobial benzalkonium by measuring their respective antibacterial activity when deposited for 5 min on an agar plate lawn of S. aureus. […] This confirms incorporation and subsequent release of the antibacterial chemical from the anodized porous surface layer.

[2] = test system: S. aureus; assay: Long term conservation: antibacterial activity of impregnated anodized aluminum disks after storage; type: cell-based; conditions: disks impregnated 4 years ago, 2.12% w/v; deposition 5 min on agar plate lawn
Description: An experiment was designed to evaluate the presence and integrity of samples stored in the anodized metallic support.
The antimicrobial activity was measured by diffusion of the antimicrobial benzalkonium following deposition for 5 min on an agar plate lawn of S. aureus (results not shown).

benzalkonium chloride
Inhibition of bacterial growth by impregnated anodized disk [1]: successfully inhibited bacterial growth | Antibacterial activity after storage in anodized aluminum disks [2]: still possible to measure antibacterial activity
